Laboratory results from patent EP4803083A1, “USE OF PYRROLOTRIAZINE COMPOUND IN PREPARATION OF DRUG FOR PREVENTING AND/OR TREATING FIBROSIS OR RELATED DISEASE THEREOF” (Jumbo Drug Bank Co., Ltd., priority 2023, dated 2025).

Experiments:
[1] = tested on: bleomycin-induced mouse pulmonary fibrosis model; assay: Bleomycin-induced pulmonary fibrosis model: lung inflammation scoring (HE staining, Szapiel Score); type: in vivo, C57BL/6 mice; settings: high-dose group (50 mg/kg); endpoint 28 days; compared with the vehicle treatment group; p value<0.05
Procedure: (§1) Experimental preparation: C57BL/6 mice, 8-10 weeks old, female, body weight approximately 18-22 g. Bleomycin. 1% sodium pentobarbital, sterile normal saline, insulin syringe.
(§2) Drug: p-toluenesulfonate salt of Compound 12 (10 mg/mL). The specific drug preparation method was as follows: 282.87 mg of the p-toluenesulfonate salt powder of Compound 12 was weighed and mixed with 1.050 mL of DMSO solution (preheated to 45°C). The mixture was placed in an ultrasonic water bath until completely dissolved. Subsequently, 19.95 mL of mixed solvent (comprising 1.995 mL of Solutol, 1.995 g of hydroxypropyl-β-cyclodextrin, and 15.96 mL water ) was added. The resulting mixture was sonicated again until completely dissolved to obtain a working solution with a concentration of 10 mg/mL. 1. After the mice begin to adapt to the environment, the experiment is started. The experimental animals are divided into five groups: normal control group, model group (Bleomycin group), low-dose treatment group (25 mg/kg), high-dose treatment group (50 mg/kg), and vehicle treatment group. […]
(§3) 5. […] According to the time point, the mice were euthanized and samples were collected for subsequent experiments; the day of modeling is recorded as day 1. […]

[2] = tested on: bleomycin-induced mouse pulmonary fibrosis model; assay: Bleomycin-induced pulmonary fibrosis model: lung fibrosis grading score (Masson staining, Ashcroft Score); type: in vivo, C57BL/6 mice; settings: endpoint 28 days, compared with the vehicle-treated group, p value <0.05
Procedure: as §1, §2, §3

Liver spheroids [3] = assay: In vitro 3D liver NASH model: TG detection; type: cell-based, human; settings: 60 nM; Day 10; compared with the NASH group; p<0.05
Procedure: (§4) Four types of human primary cells were used for modeling, including human primary hepatocytes (PHH), human primary liver sinusoidal endothelial cells (LSEC), human primary hepatic stellate cells (HSC), and human primary Kupffer cells (KC). The total number of cells in each model was 3000.
(§5) The cell connector NAC-Linker A was mixed with hepatocytes and incubated at room temperature for 30 minutes so that NAC-Linker A was fixed on the cell membrane surface. At the same time, the cell connector NAC-Linker B was mixed with the mixture of intrahepatic non-parenchymal cells and incubated at room temperature for 30 minutes so that NAC-Linker B was fixed on the cell membrane surface; (2) after incubation, the hepatocytes carrying NAC-Linker A and the intrahepatic non-parenchymal cells carrying NAC-Linker B were mixed evenly, and 20-30 µl droplets were prepared on the lid of a culture plate using a pipette. PBS solution and liver physiological culture medium (Puheng Biomedicine (Shanghai) Co., Ltd., liver physiological culture medium (human), catalog No. M0001) were added to the wells of the culture plate. The prepared culture plate lid was inverted and placed onto the culture plate to form hanging drops. The culture plate with hanging drops was placed upside down in a 37°C incubator for 12-24 hours. […]

IL-6 = assay: In vitro 3D liver NASH model: cytokine detection (IL-6); type: cell-based, human; settings: 60 nM; culture medium supernatant; compared with the NASH group; significant difference p<0.05
Procedure: as §4
as §5, with “drops.” for “drops. The culture plate with hanging drops was placed upside down in a 37°C incubator for 12-24 hours.”
The culture medium supernatant was collected and tested using an IL-6 detection kit according to the manufacturer's instructions, with measurement performed using a microplate reader.

Liver spheroids [4] = assay: In vitro 3D liver NASH model: H&E staining; type: cell-based, human; settings: compared with the NASH group
Procedure: as §4
(§6) The cell connector NAC-Linker A was mixed with hepatocytes and incubated at room temperature for 30 minutes so that NAC-Linker A was fixed on the cell membrane surface. At the same time, the cell connector NAC-Linker B was mixed with the mixture of intrahepatic non-parenchymal cells and incubated at room temperature for 30 minutes so that NAC-Linker B was fixed on the cell membrane surface; (2) after incubation, the hepatocytes carrying NAC-Linker A and the intrahepatic non-parenchymal cells carrying NAC-Linker B were mixed evenly, and 20-30 µl droplets were prepared on the lid of a culture plate using a pipette. PBS solution and liver physiological culture medium (Puheng Biomedicine (Shanghai) Co., Ltd., liver physiological culture medium (human), catalog No. M0001) were added to the wells of the culture plate. The prepared culture plate lid was inverted and placed onto the culture plate to form hanging drops. The culture plate with hanging drops was placed upside down in a 37°C incubator for 12-24 hours. Under the curvature of the lower surface of the hanging drops and gravity, complementary DNA pairing in the NAC-Linker formed connections to generate a 3D liver organoid structure.
(§7) After successful modeling on Day 0, the samples were divided into 5 groups according to different treatments, with 9 samples in each group. […]
Using ImageJ software, the steatotic area on the slides after H&E staining was quantified, and the ratio of the steatotic area to the total area of each slide was calculated (results are shown in Figure 6).

Liver spheroids [5] = assay: In vitro 3D liver NASH model: Sirius Red staining; type: cell-based, human; settings: for Sirius Red staining: fibrosis area in the liver spheroids: compared with the NASH group
Procedure: as §4, §6, §7
Using ImageJ software, the fibrosis area on the slides after Sirius Red staining was quantified, and the ratio of the fibrosis area to the total area of each slide was calculated (Figure 7).

COL1 and α-SMA = assay: In vitro 3D liver NASH model: COL1 and α-SMA immunofluorescence staining; type: cell-based, human; settings: 10 nM, 30 nM and 60 nM groups
Procedure: as §4
as §5, with “plate.” for “plate. The prepared culture plate lid was inverted and placed onto the culture plate to form hanging drops. The culture plate with hanging drops was placed upside down in a 37°C incubator for 12-24 hours.”
Liver spheroids were paraffin-embedded and sectioned, subjected to immunofluorescence staining, mounted, and photographed under a fluorescence microscope, and the results are shown in Figure 5

SMILES: Cc1cc(Nc2ncnn3cc(OCCN4CCC(F)(F)C4)c(C)c23)c(=O)n2c1C(=O)NC21CCCC1 [Compound 12 p-toluenesulfonate]
- Szapiel Score of lung tissue fibrosis [1]: significantly lower score
- Ashcroft Scores of lung tissue fibrosis ([2]; high-dose group (50 mg/kg)): significantly lower scores
- Ashcroft Scores of lung tissue fibrosis ([2]; low-dose group (25 mg/kg)): significantly lower scores
- TG level (Liver spheroids [3]): significant difference
- inflammatory cytokine level (IL-6) (IL-6): improved
- H&E staining: hepatocyte steatosis and ballooning degeneration (Liver spheroids [4]; 10 nM): improvement in hepatocyte steatosis and ballooning degeneration
- H&E staining: hepatocyte steatosis and ballooning degeneration (Liver spheroids [4]; 30 nM): significant histological improvement
- H&E staining: hepatocyte steatosis and ballooning degeneration (Liver spheroids [4]; 60 nM): significant histological improvement
- Sirius Red staining: degree of liver fibrosis (Liver spheroids [5]; 10 nM, compared with the normal control group (so in the source)): trend of improvement
- Sirius Red staining: fibrosis area in the liver spheroids (Liver spheroids [5]; 30 nM): significant differences
- Sirius Red staining: fibrosis area in the liver spheroids (Liver spheroids [5]; 60 nM): significant differences
- COL1 and α-SMA immunofluorescence staining (COL1 and α-SMA): therapeutic effect on liver fibrosis and exhibits dose dependence
